Here are results for 55 molecules from patent US20240207421A1, “NERVE TARGETING PEPTIDES AND METHODS OF USE” (ALUME BIOSCIENCES, INC., priority 2020, published 2024).

Experiment [1] relates to excised human nerve tissue (or nerve extracts). Briefly: Phage display library screening (Example 2), NEB tissue-binding peptides: nerve tissue and nerve extracts versus muscle. The following applies: unique sequence count, peptides not binding muscle extracts; for Count Excised Nerve: tissue target: excised nerve; for Count Nerve Extract: tissue target: nerve extract; for Count Neuron: tissue target: neuron. The protocol: Phage display library screens were used to identify peptides that bind to target proteins (including specific laminin trimers) that are expressed in human nerves, as described in Table 3. These screens were also carried out to identify peptides that could bind selectively to nerves versus muscle. Such peptides could therefore be useful for systemic in-vivo labeling of nerves during fluorescence assisted surgery. Specifically, m 13 phage libraries expressing 7 or 12 random amino acid peptides, or a cyclic peptide CX7C, on the N-terminus of the minor coat protein pIII (New England Biolabs; NEB) were processed through multiple rounds of selection for binding to target proteins expressed in nerves, or to excised human nerves, nerve extracts, or muscle, as described further below.
To identify peptides selective for nerves versus muscle, phage from the same libraries used for specific target proteins were used to screen against excised human nerve tissue (or nerve extracts) and human muscle tissue.
Excised Nerve Tissue: Phage were processed through multiple cycles of selection, with representative phage being isolated and sequenced after each selection cycle. Specifically, for selection using human nerve tissue, a sample of […] tissue (2 mm by 2 mm) was washed prior to mixing and incubation with a phage library. After incubation, the mixture (containing mostly intact nerves with phage particles that had variable affinity for nerves) was centrifuged and the nerve pellet washed multiple times with PBS to remove phage with little or no affinity for nerve tissue. The pellet was homogenized and plated for titering and reamplification. Phage that were bound at each round were sequenced. NextGen sequencing of pools after 2, 3 and 4 rounds of selection were used to isolate candidate sequences that were further analyzed using bioinformatics.
Nerve Extracts: Phage libraries were incubated for up to 24 hours at 4° C. in 96 well plates that had been coated with a human nerve extract. Plates were then washed with PBS and phage were eluted using 0.2M glycine pH 2.0. Phage supernatants where then neutralized with Tris pH 9.0 prior to plating on TG1 bacteria and LB agar plates. Colonies were counted to determine titer followed by DNA preparation of pools of phage and NextGen sequencing. After rounds of selection, phage were pooled and amplified for iterative selection. Phage that eluted by 0.2M glycine pH 2.0 (the nerve binders) at each round were sequenced. NextGen sequencing of pools after 2, 3 and 4 rounds of selection were used to isolate candidate sequences that were further analyzed using bioinformatics.
Muscle Tissue: Phage were processed through multiple cycles of selection, with representative phage being isolated and sequenced after each selection cycle. Specifically, for selection using human skeletal muscle tissue, a sample of skeletal muscle tissue (2 mm by 2 mm) was washed prior to mixing and incubation with a phage library. After incubation, the mixture (containing mostly intact muscle with phage particles that had variable affinity for muscle) was centrifuged and the muscle pellet washed multiple times with PBS to remove phage with little or no affinity for muscle tissue. The pellet was then homogenized and plated for titering and reamplification. Phage that were bound at each round were sequenced. NextGen sequencing of pools after 2, 3 and 4 rounds of selection were used to isolate candidate sequences that were further analyzed using bioinformatics.
For all NEB sequence datasets, a python script was used to translate, trim, and filter the peptide sequences (see details above). A python script was used to group peptides from different assays according to tissue target (muscle, nerve, neuron, or nerve extract) and combine the unique sequence counts for each peptide. […]

For experiment [2], the target named is Laminin 421/521. Briefly: phage display, NGS count.

Regarding TLNARDQLSING (nerve-binding peptide), in experiment [1], the “Count Excised Nerve” value stood at 7, the “Count Nerve Extract” value is 13 and the “Count Neuron” value came out at 6. On the same counts, the results for TSAHHDRTLAGS are 6, 12 and 6. Regarding VERLNWPKRMQS, in experiment [1], the “Count Excised Nerve” value was 27, the “Count Nerve Extract” value was 43 and the “Count Neuron” value is recorded as 16.

Regarding VESGHAYSVSSW, in experiment [1], the “Count Excised Nerve” value worked out at 14, the “Count Nerve Extract” value came to 20 and the “Count Neuron” value turned out to be 6. For VNYQTPWNKHWY, in experiment [1], the “Count Excised Nerve” value was 10, the “Count Nerve Extract” value is reported as 21 and the “Count Neuron” value worked out at 11. For VPVPKKMSLDPT, in experiment [1], the “Count Excised Nerve” value was 8, the “Count Nerve Extract” value is on record as 14 and the “Count Neuron” value stood at 6. On the same counts, the results for VRLPMLASMGHQ are 19, 40 and 21.

On to VRSDMVSGGLQK, for which, in experiment [1], the “Count Excised Nerve” value came out at 14, the “Count Nerve Extract” value came to 20 and the “Count Neuron” value is reported as 6.

For VTDMLGIPKLHA, in experiment [1], the “Count Excised Nerve” value is 18, the “Count Nerve Extract” value was 28 and the “Count Neuron” value stood at 10. On to WDVAWLERRALH, for which, in experiment [1], the “Count Excised Nerve” value stood at 23, the “Count Nerve Extract” value worked out at 43 and the “Count Neuron” value is 20. On the same counts, the results for WEKHTGPLSRYL are 6, 19 and 13. As to WPLKRFEQLPLK, in experiment [1], the “Count Excised Nerve” value is 6, the “Count Nerve Extract” value turned out to be 14 and the “Count Neuron” value is recorded as 8. On to WSGGMEDNSNRL, for which, in experiment [1], the “Count Excised Nerve” value turned out to be 9, the “Count Nerve Extract” value worked out at 18 and the “Count Neuron” value was 9. As for WVGPDIIAQMRI, in experiment [1], the “Count Excised Nerve” value was 8, the “Count Nerve Extract” value amounted to 16 and the “Count Neuron” value was 8.

As for YAGQNGWMRSDL, in experiment [1], the “Count Excised Nerve” value is listed as 28, the “Count Nerve Extract” value worked out at 45 and the “Count Neuron” value stood at 17.

YANGIEAKDSSR: in experiment [1], the “Count Excised Nerve” value amounted to 14, the “Count Nerve Extract” value came out at 20 and the “Count Neuron” value came to 6. On the same counts, the results for YAWDTVASRNYK are 14, 20 and 6. In the same order, the values of YSANSNPKKSLM are 11, 17 and 6.

With TSAVSLR, the Count in experiment [2] stood at 27. With TALSHRHEAMRW, the Count in experiment [2] turned out to be 28. Consider HQSVTGVRSHFH, for which the Count in experiment [2] came to 27.

On to QLQHVHL, for which the Count in experiment [2] came to 28. Still for that read-out and setting: under ETGGLAYGSGQK stands 28. In experiment [2], AQNLRVHAWASL came in with a Count of 28. CVLKCEDQKYRG had a Count in experiment [2] of 27. In the case of STNVQRA, the Count in experiment [2] came out at 28. On the same count and under the same terms, under TTLWLDRDEALK stands 27; under KFADTKLTSLRY, 28. On the same count and under the same terms, under CTGETLLTC stands 28; under CTSSSHQTC, 28.

The molecule GWTSDLSRNVRG came in with a Count in experiment [2] of 28. The same measure, in the same setting: under EAVSTQI stands 27; under CKSPIKGTC, 27. Still for that read-out and setting: under SVVGWAAPRTAQ stands 27; under SLPYAASLNSVE, 28. The molecule HTQIHRL registered a Count in experiment [2] of 28.

On to TILKPAAQGFAD, for which the Count in experiment [2] is 27. Consider CKSPAIKGC, for which the Count in experiment [2] worked out at 29. Still for that read-out and setting: under CPMHQSKTC stands 28; under CLQKNHKFC, 27; under QPTPSQIKFTRT, 28. GINLRALDLHAN: in experiment [2], the Count is 27. The same measure, in the same setting: under AVRPLGLPDNHR stands 29; under SYTATWSEMSRS, 28; under SVLSTGTANQRH, 28.

VIADQSKSAVAV registered a Count in experiment [2] of 27. Same read-out and setting: under SWHFTGTPFMNR stands 28; under DRMYSTVPAEGL, 27; under RALDRYLPWSPH, 28. Molecule CIGGPHRNC registered a Count in experiment [2] of 29. Turning to GIVPSRHTTGLG, the Count in experiment [2] came out at 28. SVQTPMWRSLVG gave a Count in experiment [2] of 28. In experiment [2], TKGIAPK displayed a Count of 28. In turn, TVARSTAQERSI yielded a Count in experiment [2] of 28.

CTDGRNFVC returned a Count in experiment [2] of 28.
